Experimental data: ChEMBL document CHEMBL1201862, “PubChem BioAssay data set” (2004)
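Five concentrations, 48 hours, 96-well plates. Abbreviation: GI50, concentration required for 50% inhibition of growth.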 Calls of active or inactive are those of the source. Cut-off read from the data, not from the text of the source: active = GI50 up to about 1.1 µM and inactive = higher.

Tests used:
Assay in all cases: NCI tumour cell line growth inhibition, 48 h
MDA-MB-231 = test system: MDA-MB-231
NCI/ADR-RES = test system: NCI/ADR-RES
MOLT-4 = test system: MOLT-4
HL-60 = test system: HL-60
SF-539 = test system: SF-539
T47D = test system: T47D
SW-620 = test system: SW-620
CAKI-1 = test system: CAKI-1
NCI-H23 = test system: NCI-H23
MDA-N = test system: MDA-N
RXF 393 = test system: RXF 393
786-0 = test system: 786-0
COLO 205 = test system: COLO 205
K562 = test system: K562
UO-31 = test system: UO-31
HOP-92 = test system: HOP-92
OVCAR-3 = test system: OVCAR-3
SK-MEL-28 = test system: SK-MEL-28
LOX IMVI = test system: LOX IMVI
SNB-75 = test system: SNB-75

| Compound | GI50 (MDA-MB-231) | GI50 (NCI/ADR-RES) | GI50 (MOLT-4) | GI50 (HL-60) | GI50 (SF-539) | GI50 (T47D) | GI50 (SW-620) | GI50 (CAKI-1) | GI50 (NCI-H23) | GI50 (MDA-N) | GI50 (RXF 393) | GI50 (786-0) | GI50 (COLO 205) | GI50 (K562) | GI50 (UO-31) | GI50 (HOP-92) | GI50 (OVCAR-3) | GI50 (SK-MEL-28) | GI50 (LOX IMVI) | GI50 (SNB-75) |
| --- | --- | --- | --- | --- | --- | --- | --- | --- | --- | --- | --- | --- | --- | --- | --- | --- | --- | --- | --- | --- |
| CC(=O)Nc1ccc2c(C(=O)O)c(C)c(O)nc2n1 | > 100 µM (inactive) | > 100 µM (inactive) | 51.3 µM (inactive) | > 100 µM (inactive) | > 100 µM (inactive) | 89.7 µM (inactive) | > 100 µM (inactive) | > 100 µM (inactive) | > 100 µM (inactive) | > 100 µM (inactive) | > 100 µM (inactive) | > 100 µM (inactive) | > 100 µM (inactive) | 59.8 µM (inactive) | > 100 µM (inactive) | 5.27 µM (inactive) | – | – | – | – |
| CN(C)C(=O)N1N[C@H](c2ccccc2)[C@@H]1c1ccccc1 | > 100 µM (inactive) | > 100 µM (inactive) | > 100 µM (inactive) | – | > 100 µM (inactive) | > 100 µM (inactive) | > 100 µM (inactive) | > 100 µM (inactive) | > 100 µM (inactive) | > 100 µM (inactive) | 13.5 µM (inactive) | > 100 µM (inactive) | > 100 µM (inactive) | > 100 µM (inactive) | > 100 µM (inactive) | > 100 µM (inactive) | > 100 µM (inactive) | > 100 µM (inactive) | > 100 µM (inactive) | > 100 µM (inactive) |
| O=C(c1ccc(Cl)cc1)N(C(=S)OCCOc1ccccc1)c1ccccc1 | 23.1 µM (inactive) | 23.9 µM (inactive) | 22.4 µM (inactive) | 18.6 µM (inactive) | 18.9 µM (inactive) | 20 µM (inactive) | 19.1 µM (inactive) | 17.4 µM (inactive) | 18.1 µM (inactive) | 16.6 µM (inactive) | 18.6 µM (inactive) | 18.7 µM (inactive) | 19.9 µM (inactive) | 30.4 µM (inactive) | 0.186 µM (active) | 3.34 µM (inactive) | 17.2 µM (inactive) | 15.8 µM (inactive) | 17.4 µM (inactive) | – |
| COc1ccc2cc3c4cc5c(cc4cc[n+]3cc2c1OC)OCO5 | 23.4 µM (inactive) | > 100 µM (inactive) | 8.53 µM (inactive) | 19.2 µM (inactive) | 11.4 µM (inactive) | 17.4 µM (inactive) | 5.27 µM (inactive) | – | 8.09 µM (inactive) | 7.52 µM (inactive) | 24.4 µM (inactive) | 10.2 µM (inactive) | 2.08 µM (inactive) | 16.6 µM (inactive) | 36.3 µM (inactive) | 18.1 µM (inactive) | 3.87 µM (inactive) | 5.33 µM (inactive) | 28.4 µM (inactive) | 27.8 µM (inactive) |
| O=[As](O)(O)c1ccc(/N=N/c2ccc(O)cc2)cc1 | > 100 µM (inactive) | > 100 µM (inactive) | 4.32 µM (inactive) | > 100 µM (inactive) | – | > 100 µM (inactive) | > 100 µM (inactive) | > 100 µM (inactive) | > 100 µM (inactive) | > 100 µM (inactive) | > 100 µM (inactive) | > 100 µM (inactive) | > 100 µM (inactive) | 5.69 µM (inactive) | > 100 µM (inactive) | > 100 µM (inactive) | > 100 µM (inactive) | > 100 µM (inactive) | > 100 µM (inactive) | > 100 µM (inactive) |
| CC1=C(O)C(=O)C[C@]2(C)[C@H]3CC=C4[C@@H]5CC(C)(C)CC[C@@H]5C(=O)[C@H](O)[C@@]4(C)[C@]3(C)CC[C@@H]12 | > 50 µM (inactive) | > 50 µM (inactive) | > 50 µM (inactive) | > 50 µM (inactive) | 2.8 µM (inactive) | > 50 µM (inactive) | > 50 µM (inactive) | > 50 µM (inactive) | > 50 µM (inactive) | 47.3 µM (inactive) | 10 µM (inactive) | 19.1 µM (inactive) | > 50 µM (inactive) | – | > 50 µM (inactive) | 7.36 µM (inactive) | > 50 µM (inactive) | > 50 µM (inactive) | – | 17.3 µM (inactive) |
| C=C1OC(c2ccccc2NC)=NC12CCCCC2 | > 100 µM (inactive) | > 100 µM (inactive) | > 100 µM (inactive) | > 100 µM (inactive) | > 100 µM (inactive) | > 100 µM (inactive) | > 100 µM (inactive) | > 100 µM (inactive) | > 100 µM (inactive) | > 100 µM (inactive) | > 100 µM (inactive) | > 100 µM (inactive) | > 100 µM (inactive) | > 100 µM (inactive) | > 100 µM (inactive) | > 100 µM (inactive) | > 100 µM (inactive) | > 100 µM (inactive) | > 100 µM (inactive) | – |
| NC(=O)CC1OC(=O)Cc2cc3c(c(O)c21)C(=O)c1c(O)cccc1C3=O (stereo unspecified) | > 100 µM (inactive) | > 100 µM (inactive) | 71.3 µM (inactive) | > 100 µM (inactive) | 92.7 µM (inactive) | > 100 µM (inactive) | > 100 µM (inactive) | > 100 µM (inactive) | > 100 µM (inactive) | > 100 µM (inactive) | – | > 100 µM (inactive) | 61.2 µM (inactive) | 39.5 µM (inactive) | 32.9 µM (inactive) | > 100 µM (inactive) | – | > 100 µM (inactive) | > 100 µM (inactive) | – |
| C#CCCOC1(OC)N=NC(C)(C)O1 (stereo unspecified) | > 100 µM (inactive) | > 100 µM (inactive) | > 100 µM (inactive) | > 100 µM (inactive) | > 100 µM (inactive) | > 100 µM (inactive) | > 100 µM (inactive) | – | > 100 µM (inactive) | > 100 µM (inactive) | > 100 µM (inactive) | > 100 µM (inactive) | > 100 µM (inactive) | > 100 µM (inactive) | > 100 µM (inactive) | > 100 µM (inactive) | > 100 µM (inactive) | > 100 µM (inactive) | > 100 µM (inactive) | > 100 µM (inactive) |
| COc1cc(C2c3cc4c(cc3C3OC[C@@H]2C3CO)OCO4)cc(OC)c1OC (stereo partly specified) | 38.1 µM (inactive) | 20.1 µM (inactive) | 33.1 µM (inactive) | 2.66 µM (inactive) | – | > 100 µM (inactive) | 34 µM (inactive) | 78.7 µM (inactive) | – | 8.28 µM (inactive) | 37.6 µM (inactive) | 43.1 µM (inactive) | 18.4 µM (inactive) | 24.9 µM (inactive) | 45.4 µM (inactive) | > 100 µM (inactive) | – | > 100 µM (inactive) | 31.2 µM (inactive) | 25.6 µM (inactive) |
| NC(=O)NC(=O)c1cccc(C(=O)NC(N)=O)n1 | > 100 µM (inactive) | > 100 µM (inactive) | > 100 µM (inactive) | > 100 µM (inactive) | > 100 µM (inactive) | > 100 µM (inactive) | > 100 µM (inactive) | > 100 µM (inactive) | > 100 µM (inactive) | > 100 µM (inactive) | > 100 µM (inactive) | > 100 µM (inactive) | > 10 µM (inactive) | > 100 µM (inactive) | > 100 µM (inactive) | 24 µM (inactive) | > 100 µM (inactive) | > 100 µM (inactive) | > 100 µM (inactive) | – |
